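Cells were grown in 96-well plates and exposed to each compound for 48 hours at five concentrations; endpoints were interpolated linearly between bracketing concentrations, or set to the highest concentration if not reached. GI50 = concentration required for 50% inhibition of growth. Definition used: TGI = concentration required for complete inhibition of growth.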 A value given as a limit tells only on which side of the number the result lay.

Holding throughout (assay): growth of human tumour cells (NCI), 48 h
Assay [1] deals with HCC-2998 colon.
The subject of assay [2] is NCI-H226 lung.
Assay [3] concerns SR leukemia.
Assay [4] has as its system EKVX NSCLC.
The test system of assay [5] is UACC-257 melanoma.
Assay [6] concerns COLO 205 colon.
The subject of assay [7] is PC-3 prostate.
Assay [8] deals with U251 CNS.
The subject of assay [9] is HCT-116 colon.
Assay [10] has as its system OVCAR-8 ovarian.
Assay [11] relates to A498 renal.
Assay [12] deals with OVCAR-5 ovarian.
The subject of assay [13] is HL-60(TB) leukemia.
Assay [14] has as its system A549 NSCLC.
The subject of assay [15] is SN12C renal.
Assay [16] has as its system HCT-15 colon.

On to `COc1ccc2oc(C(=O)N3CC(CCl)c4ccc([N+](=O)[O-])cc43)cc2c1` (stereo not given), for which the TGI in assay [1] is above 100 µM; in assay [2] it was 36.8 µM; in assay [3] it was above 100 µM; in [4] it was above 100 µM; in assay [5], above 100 µM; in assay [6] it was above 100 µM. Moreover, the TGI is above 100 µM in assay [7]; above 100 µM in assay [8]; above 100 µM in assay [9]; above 100 µM in [10]; 58.5 µM in assay [11].

Consider `ClC1=C(Cc2ccccc2)Cc2ccc3c(c21)CCC3`, for which the TGI in assay [1] is 40.1 µM; in assay [12] it was above 100 µM; in assay [2], 74.1 µM; in [13], 41.5 µM; in [3] it was 36.9 µM; in assay [4], above 100 µM. Further, the TGI in assay [5] is 53.8 µM; in assay [14], 98.2 µM; in [6], 26.2 µM; in [15], above 100 µM; in assay [7] it was above 100 µM; in [8], 39.3 µM. For the same molecule, the TGI in [9] is 94.9 µM; in assay [16], above 100 µM; in assay [10], above 100 µM.

On to `Cc1ccc(S(=O)(=O)OC2C(C3COC(C)(C)O3)OC3OC(C)(C)OC32)cc1` (stereo not given), for which the TGI in [1], in [12], in [2], in assay [3], in [4] and in [5] was above 100 µM each time. For the same molecule, the TGI in [14], in assay [15], in [7], in assay [8], in [9] and in assay [16] was above 100 µM throughout. The TGI in [10] and in assay [11] was above 100 µM throughout.

As to `N/N=C1/CCCc2nonc21`, the TGI in assay [1], in assay [12], in assay [13], in assay [3], in [4] and in assay [5] was above 100 µM throughout. Moreover, the TGI in [14], in assay [6], in assay [15], in assay [7], in [8] and in assay [9] was above 100 µM in each case. The TGI in assay [16] and in assay [10] was above 100 µM in each case.

For the molecule `CCOP(=O)(OCC)/C(C#N)=C/c1cccn1CC(C)C`, the TGI in [1], in [12], in assay [2], in assay [3], in assay [4] and in assay [5] was above 100 µM each time. The TGI in assay [14], in assay [6], in [15], in [7], in assay [8] and in assay [9] was above 100 µM throughout. For the same molecule, the TGI in [16], in [10] and in [11] was above 100 µM throughout.

For `CCCCn1c2c(n(CCCC)c1=S)-c1c(n(CCCC)c(=S)n1CCCC)SSSS2`, the TGI in [1] is 26.7 µM; in assay [12], 1.66 µM; in assay [2], 80.8 µM; in [3] it was above 100 µM; in [4], 23.2 µM; in [5] it was 9.13 µM. Also, the TGI in [14] is above 95.1 µM; in assay [6], 1.68 µM; in assay [15] it was 14.7 µM; in assay [7] it was 7.24 µM; in assay [8] it was 12.9 µM; in [9], 11.8 µM. In addition, the TGI in [16] was 4.45 µM; in assay [10], 18.1 µM; in assay [11], above 100 µM.

With `Cc1n[nH]c(=O)n1/N=C/c1c[nH]c2ccccc12`, the TGI in assay [1], in assay [12], in [3], in [4], in assay [5] and in assay [14] was above 100 µM in each case. In addition, the TGI in assay [6], in [15], in assay [7], in assay [8], in assay [9] and in assay [16] was above 100 µM throughout. Besides, the TGI in [10] and in [11] was above 100 µM each time.

As for `FC(F)(Sc1ccccc1)c1nc2ccccc2o1`, the TGI in assay [1] is above 100 µM; in assay [12], above 100 µM; in [2], above 100 µM; in assay [3], 73.7 µM; in assay [5] it was above 100 µM; in assay [14], above 100 µM. In addition, the TGI in [6], in [15], in assay [7], in [8], in [9] and in assay [16] was above 100 µM throughout. The TGI in assay [10] and in assay [11] was above 100 µM each time.

As for `CC1(C)CN=C(Nc2cccc(C(F)(F)F)c2)S1`, the TGI in assay [1], in assay [12], in [2], in assay [13], in assay [3] and in [4] was above 100 µM each time. Besides, the TGI in [5], in [14], in [6], in assay [15], in assay [7] and in assay [8] was above 100 µM in each case. Moreover, the TGI in assay [9], in assay [16] and in [10] was above 100 µM in each case.

As to `NS(=O)(=O)c1ccc(CNc2nc(-c3cccs3)nc3ccc(I)cc23)cc1`, the TGI was 27.7 µM in [1]; 44.4 µM in assay [12]; 40.1 µM in assay [2]; above 100 µM in assay [13]; 42.8 µM in [3]; 29.3 µM in [4]. Moreover, the TGI in assay [5] worked out at 27.5 µM; in assay [14], 28.5 µM; in assay [6], 29.9 µM; in [15] it was 57.7 µM; in [7], 53.3 µM; in assay [8], 37.7 µM. The TGI in [9] was 28.1 µM; in assay [16] it was 28.9 µM; in assay [10], 37.7 µM. Further, the GI50 in assay [13] was 29.9 µM; in [5], 14 µM.

Take `N#CC(c1cc2c(cc1Br)OCO2)N1CCOCC1` (stereo not given): the TGI in assay [1] is above 100 µM; in [12], above 100 µM; in assay [2] it was above 100 µM; in [13] it was 25.7 µM; in assay [3] it was 60.3 µM; in assay [4], above 100 µM. In addition, the TGI in [5] was above 100 µM; in [14], above 100 µM; in assay [6] it was above 100 µM; in assay [15], above 100 µM; in assay [7], 71.2 µM; in assay [9], above 100 µM. In assay [10], this molecule had a TGI above 100 µM.

For `NC1=NNC2(C(N)=N1)c1ccccc1-c1ccccc12`, the TGI in [1], in assay [2], in [13], in assay [3], in assay [4] and in [5] was above 10 µM each time. For the same molecule, the TGI in assay [14], in assay [6], in [15], in assay [7], in assay [9] and in assay [16] was above 10 µM throughout. In assay [10], this molecule displayed a TGI above 10 µM.

Take `O=C1CC2(CCNCC2)C(=O)N1N1CCCC1`: the TGI in [1], in [12], in assay [2], in assay [13], in assay [3] and in [4] was above 100 µM throughout. Moreover, the TGI in [5], in [14], in assay [6], in assay [15], in assay [7] and in assay [8] was above 100 µM each time. Besides, the TGI in [9], in [16] and in [10] was above 100 µM throughout.

For `CC(=O)Oc1ccccc1C(=O)O`, the TGI in assay [12], in assay [2], in [13], in assay [3], in assay [4] and in assay [5] was above 100 µM each time. Moreover, the TGI in assay [14], in [6], in assay [15], in assay [7], in assay [8] and in [9] was above 100 µM each time. Besides, the TGI in assay [16] and in assay [10] was above 100 µM in each case.

Take `O=[N+]([O-])c1cc(-[n+]2cc([O-])on2)ccc1F`: the TGI is 28.6 µM in [1]; 31.2 µM in assay [12]; 47 µM in assay [2]; 49 µM in assay [13]; above 100 µM in assay [3]; 34.8 µM in assay [4]. For the same molecule, the TGI was found to be 31.6 µM in assay [5]; 33.4 µM in [14]; 35.2 µM in assay [6]; 31.2 µM in assay [15]; 35.1 µM in assay [7]; 32.4 µM in assay [8]. The TGI is 28.6 µM in assay [9], 52.8 µM in assay [16] and 30.9 µM in assay [10].

For the molecule `CCOC(=O)c1c(-c2ccc(OC)cc2)c(C#N)c(=S)n(C2OC(CO)C(O)C(O)C2O)c1-c1ccccc1` (stereo not given), the TGI in assay [1], in assay [12], in [13], in assay [3], in [5] and in [14] was above 100 µM each time. Also, the TGI in [6] was above 100 µM; in assay [15], above 100 µM; in assay [7] it was above 100 µM; in [8], above 100 µM; in assay [9], 85.3 µM; in [16], above 100 µM.

Regarding `O=C(c1cccnc1)N1N=C(c2ccc(Cl)cc2)CC1(O)c1cc(F)c(Cl)cc1Cl` (stereo not given), the TGI in assay [12] is above 100 µM; in assay [2], 43.3 µM; in assay [13], 47.9 µM; in assay [3], above 100 µM; in assay [4] it was 76.5 µM; in assay [5], 63.7 µM. In addition, the TGI in assay [14] is above 100 µM; in assay [6], 28.7 µM; in [15] it was 37.5 µM; in [7], 43.4 µM; in [8] it was 34.3 µM; in assay [9], 52.8 µM. The TGI in [16] and in assay [10] was above 100 µM in each case.

On to `CN(/N=C/C=N/N(C)C1=NCCCCN1)C1=NCCCCN1`, for which the TGI in [1], in [12], in assay [2], in assay [3], in [4] and in [5] was above 100 µM throughout. The TGI in [14], in assay [6], in [15], in assay [7], in [8] and in assay [9] was above 100 µM each time. Besides, the TGI in [16] and in assay [10] was above 100 µM throughout.

Consider `CN(CCCCN(C)CCc1ccc(Cl)c(Cl)c1)CCCCN1CCCC1`, for which the TGI came out at 0.384 µM in assay [1]; 5.54 µM in [12]; 4.01 µM in assay [2]; 3.97 µM in assay [13]; 3.54 µM in assay [4]; 3.06 µM in assay [5]. Besides, the TGI in assay [14] is 3.35 µM; in [6] it was 3.8 µM; in [15] it was 4.01 µM; in assay [7] it was 4.52 µM; in assay [8] it was 1.97 µM; in assay [9] it was 2.93 µM. Also, the TGI in assay [16] amounted to 3.73 µM; in [10] it was 6.25 µM; in assay [11] it was 3.14 µM.

On to `CC(=O)Oc1cc2c(cc1OC(C)=O)[C@H]1CC[C@]3(C)[C@@H](OC(C)=O)CC[C@H]3[C@@H]1CC2`, for which the TGI in assay [1] stood at 21.1 µM; in assay [12], 24.2 µM; in [3], 5.77 µM; in [4], 9.64 µM; in assay [5], 22.4 µM; in assay [14], 24.2 µM. Moreover, the TGI in assay [6] was found to be 15.5 µM; in [15], 20.4 µM; in [7], 25.5 µM; in [8] it was 17.6 µM; in assay [9], 18.5 µM; in [16] it was 15.4 µM. Besides, the TGI in assay [10] was 28 µM; in [11], 25.6 µM. Besides, the GI50 was 5.06 µM in assay [15] and 5.08 µM in assay [9].

These data come from PubChem BioAssay (NCI).
